# In ChEMBL document CHEMBL2086272, “Anticlastogenic effect in human lymphocytes by the sodium salt of 3,4-secoisopimar-4(18),7,15-trien-3-oic acid” (J Nat Prod, 2012):
# Columns and labels:
# [1] = tested on: PBL; assay: Cytotoxicity in human PBL assessed as nuclear division index at 33 uM treated after treatment with colcemid (reference value: 1.59 +/- 0.08 nuclear division index); type: cell-based
# [2] = tested on: PBL; assay: Cytotoxicity in human PBL assessed as nuclear division index at 3.3 uM pretreated before colcemid (reference value: 1.63 +/- 0.11 nuclear division index); type: cell-based
# [3] = tested on: PBL; assay: Cytotoxicity in human PBL assessed as nuclear division index at 0.054 uM pretreated before colcemid (reference value: 1.63 +/- 0.11 nuclear division index); type: cell-based
# [4] = tested on: PBL; assay: Antimutagenic activity in human PBL assessed as inhibition of ethyl methanesulfonate-induced frequency of micronucleus per 1000 binucleated lymphocyte cells at 1930 uM co-treated with ethyl methanesulfonate by cytokinesis blocking technique (reference value: 4.00 +/- 0.41 micronucleus frequency/1000 binucleated lymphocyte cells); type: functional
# [5] = tested on: PBL; assay: Antimutagenic activity in human PBL assessed as inhibition of ethyl methanesulfonate-induced frequency of micronucleus per 1000 binucleated lymphocyte cells at 0.3 uM co-treated with ethyl methanesulfonate by cytokinesis blocking technique (reference value: 4.00 +/- 0.41 micronucleus frequency/1000 binucleated lymphocyte cells); type: functional
# [6] = tested on: PBL; assay: Cytotoxicity in human PBL assessed as nuclear division index at 33 uM co-treated with colcemid (reference value: 1.65 +/- 0.06 nuclear division index); type: cell-based
# [7] = tested on: PBL; assay: Cytotoxicity in human PBL assessed as nuclear division index at 0.3 uM co-treated with colcemid (reference value: 1.65 +/- 0.06 nuclear division index); type: cell-based
# [8] = tested on: PBL; assay: Cytotoxicity in human PBL assessed as nuclear division index at 0.3 uM treated after treatment with ethyl methanesulfonate (reference value: 1.59 +/- 0.08 nuclear division index); type: cell-based
# [9] = tested on: PBL; assay: Cytotoxicity in human PBL assessed as nuclear division index at 3.3 uM treated after treatment with ethyl methanesulfonate (reference value: 1.59 +/- 0.08 nuclear division index); type: cell-based
# [10] = tested on: PBL; assay: Antimutagenic activity in human PBL assessed as inhibition of colcemid-induced frequency of micronucleus per 1000 binucleated lymphocyte cells at 33 uM co-treated with colcemid by cytokinesis blocking technique (reference value: 4.00 +/- 0.41 micronucleus frequency/1000 binucleated lymphocyte cells); type: functional
# [11] = tested on: PBL; assay: Antimutagenic activity in human PBL assessed as inhibition of colcemid-induced frequency of micronucleus per 1000 binucleated lymphocyte cells at 33 uM pretreated before colcemid by cytokinesis blocking technique (reference value: 3.33 +/- 0.88 micronucleus frequency/1000 binucleated lymphocyte cells); type: functional
# [12] = tested on: PBL; assay: Cytotoxicity in human PBL assessed as nuclear division index at 1930 uM pretreated before ethyl methanesulfonate (reference value: 1.63 +/- 0.11 nuclear division index); type: cell-based
# [13] = tested on: PBL; assay: Antimutagenic activity in human PBL assessed as inhibition of colcemid-induced frequency of micronucleus per 1000 binucleated lymphocyte cells at 33 uM treated after treatment with colcemid by cytokinesis blocking technique (reference value: 3.33 +/- 0.33 micronucleus frequency/1000 binucleated lymphocyte cells); type: functional
# [14] = tested on: PBL; assay: Cytotoxicity in human PBL assessed as nuclear division index at 0.054 uM co-treated with colcemid (reference value: 1.65 +/- 0.06 nuclear division index); type: cell-based
# [15] = tested on: PBL; assay: Antimutagenic activity in human PBL assessed as inhibition of colcemid-induced frequency of micronucleus per 1000 binucleated lymphocyte cells at 0.054 uM pretreated before colcemid by cytokinesis blocking technique (reference value: 3.33 +/- 0.88 micronucleus frequency/1000 binucleated lymphocyte cells); type: functional
# [16] = tested on: PBL; assay: Cytotoxicity in human PBL assessed as nuclear division index at 3.3 uM co-treated with colcemid (reference value: 1.65 +/- 0.06 nuclear division index); type: cell-based
# [17] = tested on: PBL; assay: Antimutagenic activity in human PBL assessed as inhibition of ethyl methanesulfonate-induced frequency of micronucleus per 1000 binucleated lymphocyte cells at 33 uM treated after treatment with ethyl methanesulfonate by cytokinesis blocking technique (reference value: 3.33 +/- 0.33 micronucleus frequency/1000 binucleated lymphocyte cells); type: functional
# [18] = tested on: PBL; assay: Antimutagenic activity in human PBL assessed as inhibition of colcemid-induced frequency of micronucleus per 1000 binucleated lymphocyte cells at 3.3 uM pretreated before colcemid by cytokinesis blocking technique (reference value: 3.33 +/- 0.88 micronucleus frequency/1000 binucleated lymphocyte cells); type: functional
# [19] = tested on: PBL; assay: Cytotoxicity in human PBL assessed as nuclear division index at 330 uM treated after treatment with colcemid (reference value: 1.59 +/- 0.08 nuclear division index); type: cell-based
# [20] = tested on: PBL; assay: Cytotoxicity in human PBL assessed as nuclear division index at 330 uM treated after treatment with ethyl methanesulfonate (reference value: 1.59 +/- 0.08 nuclear division index); type: cell-based
# [21] = tested on: PBL; assay: Cytotoxicity in human PBL assessed as nuclear division index at 330 uM co-treated with colcemid (reference value: 1.65 +/- 0.06 nuclear division index); type: cell-based
# [22] = tested on: PBL; assay: Antimutagenic activity in human PBL assessed as inhibition of ethyl methanesulfonate-induced frequency of micronucleus per 1000 binucleated lymphocyte cells at 3.3 uM co-treated with ethyl methanesulfonate by cytokinesis blocking technique (reference value: 4.00 +/- 0.41 micronucleus frequency/1000 binucleated lymphocyte cells); type: functional
# [23] = tested on: PBL; assay: Antimutagenic activity in human PBL assessed as inhibition of colcemid-induced frequency of micronucleus per 1000 binucleated lymphocyte cells at 0.3 uM pretreated before colcemid by cytokinesis blocking technique (reference value: 3.33 +/- 0.88 micronucleus frequency/1000 binucleated lymphocyte cells); type: functional
# [24] = tested on: PBL; assay: Antimutagenic activity in human PBL assessed as inhibition of ethyl methanesulfonate-induced frequency of micronucleus per 1000 binucleated lymphocyte cells at 330 uM co-treated with ethyl methanesulfonate by cytokinesis blocking technique (reference value: 4.00 +/- 0.41 micronucleus frequency/1000 binucleated lymphocyte cells); type: functional
# [25] = tested on: PBL; assay: Antimutagenic activity in human PBL assessed as inhibition of ethyl methanesulfonate-induced frequency of micronucleus per 1000 binucleated lymphocyte cells at 330 uM pretreated before ethyl methanesulfonate by cytokinesis blocking technique (reference value: 3.33 +/- 0.88 micronucleus frequency/1000 binucleated lymphocyte cells); type: functional
# [26] = tested on: PBL; assay: Cytotoxicity in human PBL assessed as nuclear division index at 330 uM pretreated before colcemid (reference value: 1.63 +/- 0.11 nuclear division index); type: cell-based
# [27] = tested on: PBL; assay: Antimutagenic activity in human PBL assessed as inhibition of ethyl methanesulfonate-induced frequency of micronucleus per 1000 binucleated lymphocyte cells at 1930 uM pretreated before ethyl methanesulfonate by cytokinesis blocking technique (reference value: 3.33 +/- 0.88 micronucleus frequency/1000 binucleated lymphocyte cells); type: functional
# [28] = tested on: PBL; assay: Cytotoxicity in human PBL assessed as nuclear division index at 0.3 uM pretreated before ethyl methanesulfonate (reference value: 1.63 +/- 0.11 nuclear division index); type: cell-based
# [29] = tested on: PBL; assay: Cytotoxicity in human PBL assessed as nuclear division index at 0.3 uM co-treated with ethyl methanesulfonate (reference value: 1.65 +/- 0.06 nuclear division index); type: cell-based
# [30] = tested on: PBL; assay: Antimutagenic activity in human PBL assessed as inhibition of ethyl methanesulfonate-induced frequency of micronucleus per 1000 binucleated lymphocyte cells at 0.3 uM pretreated before ethyl methanesulfonate by cytokinesis blocking technique (reference value: 3.33 +/- 0.88 micronucleus frequency/1000 binucleated lymphocyte cells); type: functional
smiles,measurement,setting,value
C=C[C@@]1(C)CC[C@H]2C(=CC[C@@H](C(=C)C)[C@]2(C)CCC(=O)[O-])C1.[Na+],Activity,[1],1.56
same,Activity,[2],1.28
same,Activity,[3],1.52
same,Activity,[4],15.8
same,Activity,[5],4
same,Activity,[6],1.51
same,Activity,[7],1.37
same,Activity,[8],1.43
same,Activity,[9],1.36
same,Activity,[10],21
same,Activity,[11],18
same,Activity,[12],1.53
same,Activity,[13],11.75
same,Activity,[14],1.39
same,Activity,[15],22.75
same,Activity,[16],1.42
same,Activity,[17],19.5
same,Activity,[18],18.42
same,Activity,[19],1.56
same,Activity,[20],1.31
same,Activity,[21],1.41
same,Activity,[22],6.75
same,Activity,[23],19.25
same,Activity,[24],4.5
same,Activity,[25],4
same,Activity,[26],1.03
same,Activity,[27],14
same,Activity,[28],1.46
same,Activity,[29],1.38
same,Activity,[30],5.5
